According to patent US9963442B2, “Pyridones as herbicides” (E I DU PONT DE NEMOURS AND COMPANY, priority 2014, dated 2018):

Tests used:
Format in all cases: in vivo
[1] = tested on: Italian ryegrass (Lolium multiflorum); assay: Test A preemergence, directed soil spray; settings: approx. 10 days
Source text: (§1) Seeds of plant species selected from barnyardgrass (Echinochloa crus-galli), kochia (Kochia scoparia), ragweed (common ragweed, Ambrosia elatior), Italian ryegrass (Lolium multiflorum), giant foxtail (Setaria faberii), and pigweed (Amaranthus retroflexus) were planted into a blend of loam soil and sand and treated preemergence with a directed soil spray using test chemicals formulated in a non-phytotoxic solvent mixture which included a surfactant. At the same time, plants selected from these weed species and also wheat (Triticum aestivum), corn (Zea mays), blackgrass (Alopecurus myosuroides), and galium (catchweed bedstraw, Galium aparine) were planted in pots containing the same blend of loam soil and sand and treated with postemergence applications of test chemicals formulated in the same manner. Plants ranged in height from 2 to 10 cm and were in the one- to two-leaf stage for the postemergence treatment. Treated plants and untreated controls were maintained in a greenhouse for approximately 10 days, after which time all treated plants were compared to untreated controls and visually evaluated for injury. Plant response ratings, summarized in Table A, are based on a 0 to 100 scale where 0 is no effect and 100 is complete control. A dash (-) response means no test result.

[2] = tested on: barnyardgrass (Echinochloa crus-galli); assay: Test A preemergence, directed soil spray; settings: approx. 10 days
Source text: as §1

[3] = tested on: giant foxtail (Setaria faberii); assay: Test A preemergence, directed soil spray; settings: approx. 10 days
Source text: as §1

kochia (Kochia scoparia) [4] = assay: Test A preemergence, directed soil spray; settings: approx. 10 days
Source text: as §1

[5] = tested on: pigweed (Amaranthus retroflexus); assay: Test A preemergence, directed soil spray; settings: approx. 10 days
Source text: as §1

[6] = tested on: ragweed (common ragweed, Ambrosia elatior); assay: Test A preemergence, directed soil spray; settings: approx. 10 days
Source text: as §1

[7] = tested on: Italian ryegrass (Lolium multiflorum); assay: Test A postemergence application; settings: approx. 10 days
Source text: as §1

[8] = tested on: barnyardgrass (Echinochloa crus-galli); assay: Test A postemergence application; settings: approx. 10 days
Source text: as §1

[9] = tested on: blackgrass (Alopecurus myosuroides); assay: Test A postemergence application; settings: approx. 10 days
Source text: as §1

corn (Zea mays) = assay: Test A postemergence application; settings: approx. 10 days
Source text: as §1

[10] = tested on: galium (catchweed bedstraw, Galium aparine); assay: Test A postemergence application; settings: approx. 10 days
Source text: as §1

[11] = tested on: giant foxtail (Setaria faberii); assay: Test A postemergence application; settings: approx. 10 days
Source text: as §1

kochia (Kochia scoparia) [12] = assay: Test A postemergence application; settings: approx. 10 days
Source text: as §1

[13] = tested on: pigweed (Amaranthus retroflexus); assay: Test A postemergence application; settings: approx. 10 days
Source text: as §1

[14] = tested on: ragweed (common ragweed, Ambrosia elatior); assay: Test A postemergence application; settings: approx. 10 days
Source text: as §1

[15] = tested on: wheat (Triticum aestivum); assay: Test A postemergence application; settings: approx. 10 days
Source text: as §1

[16] = tested on: barnyardgrass (Echinochloa crus-galli); assay: Test B flooded paddy test; design: key: 0 = no effect, 100 = complete control; settings: Flood, 250 g ai/ha applied to paddy water at 2-leaf stage; visually evaluated after 13 to 15 days; scale 0 (no effect) to 100 (complete control)
Procedure: (§2) Plant species in the flooded paddy test selected from rice (Oryza sativa), sedge, umbrella (small-flower umbrella sedge, Cyperus difformis), ducksalad (Heteranthera limosa), and barnyardgrass (Echinochloa crus-galli) were grown to the 2-leaf stage for testing. At time of treatment, test pots were flooded to 3 cm above the soil surface, treated by application of test compounds directly to the paddy water, and then maintained at that water depth for the duration of the test. Treated plants and controls were maintained in a greenhouse for 13 to 15 days, after which time all species were compared to controls and visually evaluated. Plant response ratings, summarized in Table B, are based on a scale of 0 to 100 where 0 is no effect and 100 is complete control. A dash (-) response means no test result.

[17] = tested on: ducksalad (Heteranthera limosa); assay: Test B flooded paddy test; design: key: 0 = no effect, 100 = complete control; settings: Flood, 250 g ai/ha applied to paddy water at 2-leaf stage; visually evaluated after 13 to 15 days; scale 0 (no effect) to 100 (complete control)
Procedure: as §2

rice (Oryza sativa) = assay: Test B flooded paddy test; design: key: 0 = no effect, 100 = complete control; settings: Flood, 250 g ai/ha applied to paddy water at 2-leaf stage; visually evaluated after 13 to 15 days; scale 0 (no effect) to 100 (complete control)
Procedure: as §2

[18] = tested on: sedge, umbrella (small-flower umbrella sedge, Cyperus difformis); assay: Test B flooded paddy test; design: key: 0 = no effect, 100 = complete control; settings: Flood, 250 g ai/ha applied to paddy water at 2-leaf stage; visually evaluated after 13 to 15 days; scale 0 (no effect) to 100 (complete control)
Procedure: as §2

Row | Compound | Plant response rating (0 to 100 scale, 0 no effect, 100 complete control), Ryegrass, Italian ([1]; 31 g ai/ha) | Plant response rating (0 to 100 scale, 0 no effect, 100 complete control), Ryegrass, Italian ([1]; 125 g ai/ha) | Plant response rating (0 to 100 scale, 0 no effect, 100 complete control), Barnyardgrass ([2]; 31 g ai/ha) | Plant response rating (0 to 100 scale, 0 no effect, 100 complete control), Barnyardgrass ([2]; 125 g ai/ha) | Plant response rating (0 to 100 scale, 0 no effect, 100 complete control), Foxtail, Giant ([3]; 31 g ai/ha) | Plant response rating (0 to 100 scale, 0 no effect, 100 complete control), Foxtail, Giant ([3]; 125 g ai/ha) | Plant response rating (0 to 100 scale, 0 no effect, 100 complete control), Kochia (kochia (Kochia scoparia) [4]; 31 g ai/ha) | Plant response rating (0 to 100 scale, 0 no effect, 100 complete control), Kochia (kochia (Kochia scoparia) [4]; 125 g ai/ha) | Plant response rating (0 to 100 scale, 0 no effect, 100 complete control), Pigweed ([5]; 31 g ai/ha) | Plant response rating (0 to 100 scale, 0 no effect, 100 complete control), Pigweed ([5]; 125 g ai/ha) | Plant response rating (0 to 100 scale, 0 no effect, 100 complete control), Ragweed ([6]; 125 g ai/ha) | Plant response rating (0 to 100 scale, 0 no effect, 100 complete control), Ryegrass, Italian ([7]; 31 g ai/ha) | Plant response rating (0 to 100 scale, 0 no effect, 100 complete control), Ryegrass, Italian ([7]; 125 g ai/ha) | Plant response rating (0 to 100 scale, 0 no effect, 100 complete control), Barnyardgrass ([8]; 31 g ai/ha) | Plant response rating (0 to 100 scale, 0 no effect, 100 complete control), Barnyardgrass ([8]; 125 g ai/ha) | Plant response rating (0 to 100 scale, 0 no effect, 100 complete control), Blackgrass ([9]; 31 g ai/ha) | Plant response rating (0 to 100 scale, 0 no effect, 100 complete control), Blackgrass ([9]; 125 g ai/ha) | Plant response rating (0 to 100 scale, 0 no effect, 100 complete control), Corn (corn (Zea mays); 31 g ai/ha) | Plant response rating (0 to 100 scale, 0 no effect, 100 complete control), Corn (corn (Zea mays); 125 g ai/ha) | Plant response rating (0 to 100 scale, 0 no effect, 100 complete control), Galium ([10]; 31 g ai/ha) | also measured
1 | O=c1cccc(Oc2ncc(Cl)cn2)n1-c1ncc(C(F)(F)F)cn1 [Compound 5] | 0 | 0 | 0 | 80 | 70 | 100 | 0 | 100 | 90 | 100 | 80 | 0 | 30 | 0 | 20 | 30 | 50 | 0 | 10 | 50 | Plant response rating (0 to 100 scale, 0 no effect, 100 complete control), Ragweed ([6]; 31 g ai/ha): 0; Plant response rating (0 to 100 scale, 0 no effect, 100 complete control), Galium ([10]; 125 g ai/ha): 90; Plant response rating (0 to 100 scale, 0 no effect, 100 complete control), Foxtail, Giant ([11]; 31 g ai/ha): 10; Plant response rating (0 to 100 scale, 0 no effect, 100 complete control), Foxtail, Giant ([11]; 125 g ai/ha): 80; Plant response rating (0 to 100 scale, 0 no effect, 100 complete control), Kochia (kochia (Kochia scoparia) [12]; 31 g ai/ha): 40; Plant response rating (0 to 100 scale, 0 no effect, 100 complete control), Kochia (kochia (Kochia scoparia) [12]; 125 g ai/ha): 60; Plant response rating (0 to 100 scale, 0 no effect, 100 complete control), Pigweed ([13]; 31 g ai/ha): 70; Plant response rating (0 to 100 scale, 0 no effect, 100 complete control), Pigweed ([13]; 125 g ai/ha): 90; Plant response rating (0 to 100 scale, 0 no effect, 100 complete control), Ragweed ([14]; 31 g ai/ha): 30; Plant response rating (0 to 100 scale, 0 no effect, 100 complete control), Ragweed ([14]; 125 g ai/ha): 80; Plant response rating (0 to 100 scale, 0 no effect, 100 complete control), Wheat ([15]; 31 g ai/ha): 0; Plant response rating (0 to 100 scale, 0 no effect, 100 complete control), Wheat ([15]; 125 g ai/ha): 0; Plant response rating, Barnyardgrass [16]: 0; Plant response rating, Ducksalad [17]: 85; Plant response rating, Rice (rice (Oryza sativa)): 0; Plant response rating, Sedge, Umbrella [18]: 75
2 | O=c1cccc(Oc2ncc(Cl)cn2)n1-c1ccc(Cl)cn1 [Compound 8] | 0 | 10 | 0 | 30 | 40 | 80 | 30 | 100 | 70 | 100 | 20 | 10 | 20 | 10 | 30 | 10 | 20 | 10 | 20 | 60 | Plant response rating (0 to 100 scale, 0 no effect, 100 complete control), Ragweed ([6]; 31 g ai/ha): 0; Plant response rating (0 to 100 scale, 0 no effect, 100 complete control), Galium ([10]; 125 g ai/ha): 70; Plant response rating (0 to 100 scale, 0 no effect, 100 complete control), Foxtail, Giant ([11]; 31 g ai/ha): 20; Plant response rating (0 to 100 scale, 0 no effect, 100 complete control), Foxtail, Giant ([11]; 125 g ai/ha): 70; Plant response rating (0 to 100 scale, 0 no effect, 100 complete control), Kochia (kochia (Kochia scoparia) [12]; 31 g ai/ha): 70; Plant response rating (0 to 100 scale, 0 no effect, 100 complete control), Kochia (kochia (Kochia scoparia) [12]; 125 g ai/ha): 90; Plant response rating (0 to 100 scale, 0 no effect, 100 complete control), Pigweed ([13]; 31 g ai/ha): 80; Plant response rating (0 to 100 scale, 0 no effect, 100 complete control), Pigweed ([13]; 125 g ai/ha): 90; Plant response rating (0 to 100 scale, 0 no effect, 100 complete control), Ragweed ([14]; 31 g ai/ha): 30; Plant response rating (0 to 100 scale, 0 no effect, 100 complete control), Ragweed ([14]; 125 g ai/ha): 70; Plant response rating (0 to 100 scale, 0 no effect, 100 complete control), Wheat ([15]; 31 g ai/ha): 0; Plant response rating (0 to 100 scale, 0 no effect, 100 complete control), Wheat ([15]; 125 g ai/ha): 0; Plant response rating, Barnyardgrass [16]: 0; Plant response rating, Ducksalad [17]: 75; Plant response rating, Rice (rice (Oryza sativa)): 0; Plant response rating, Sedge, Umbrella [18]: 65
3 | O=c1cccc(Oc2ncc(Cl)cn2)n1-c1ccc(F)cn1 [Compound 9] | 0 | 0 | 0 | 0 | 10 | 70 | 20 | 50 | 50 | 80 | 70 | 0 | 20 | 0 | 10 | 0 | 10 | 10 | 10 | 30 | Plant response rating (0 to 100 scale, 0 no effect, 100 complete control), Galium ([10]; 125 g ai/ha): 60; Plant response rating (0 to 100 scale, 0 no effect, 100 complete control), Foxtail, Giant ([11]; 31 g ai/ha): 0; Plant response rating (0 to 100 scale, 0 no effect, 100 complete control), Foxtail, Giant ([11]; 125 g ai/ha): 20; Plant response rating (0 to 100 scale, 0 no effect, 100 complete control), Kochia (kochia (Kochia scoparia) [12]; 31 g ai/ha): 70; Plant response rating (0 to 100 scale, 0 no effect, 100 complete control), Kochia (kochia (Kochia scoparia) [12]; 125 g ai/ha): 90; Plant response rating (0 to 100 scale, 0 no effect, 100 complete control), Pigweed ([13]; 31 g ai/ha): 50; Plant response rating (0 to 100 scale, 0 no effect, 100 complete control), Pigweed ([13]; 125 g ai/ha): 80; Plant response rating (0 to 100 scale, 0 no effect, 100 complete control), Ragweed ([14]; 31 g ai/ha): 20; Plant response rating (0 to 100 scale, 0 no effect, 100 complete control), Ragweed ([14]; 125 g ai/ha): 40; Plant response rating (0 to 100 scale, 0 no effect, 100 complete control), Wheat ([15]; 31 g ai/ha): 0; Plant response rating (0 to 100 scale, 0 no effect, 100 complete control), Wheat ([15]; 125 g ai/ha): 0; Plant response rating, Barnyardgrass [16]: 0; Plant response rating, Ducksalad [17]: 60; Plant response rating, Rice (rice (Oryza sativa)): 0; Plant response rating, Sedge, Umbrella [18]: 40
